In PubChem BioAssay AID328 (DTP/NCI, 2004):
Several values for one entry are separate records, joined by “and”; a condition that tells them apart may be missing. Equal values may be shown once. Inconclusive results and toxic doses are left out.

Test system: BDF1 mice, P388 leukemia ip, median survival T/C
Experiment: NCI In Vivo Anticancer Drug Screen. Data for tumor model P388 Leukemia (intraperitoneal) in B6D2F1 (BDF1) mice
Conditions: endpoint: median survival time, higher = longer survival
Procedure, shortened: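 Each value expresses how treatment altered survival: treated-mouse outcome over vehicle-mouse outcome, both groups bearing the transplanted tumour.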

[1] = dose: 100.0 mg/kg/injection, schedule: Q01DX009 (ip), vehicle: saline with Tween-80
[2] = dose: 100.0 mg/kg/injection, schedule: Q04DX003 (ip), vehicle: saline with Tween-80
[3] = dose: 200.0 mg/kg/injection, schedule: Q01DX009 (ip), vehicle: saline with Tween-80
[4] = dose: 200.0 mg/kg/injection, schedule: Q04DX003 (ip), vehicle: saline with Tween-80
[5] = dose: 400.0 mg/kg/injection, schedule: Q01DX009 (ip), vehicle: saline with Tween-80
[6] = dose: 400.0 mg/kg/injection, schedule: Q04DX003 (ip), vehicle: saline with Tween-80
[7] = dose: 100.0 mg/kg/injection, schedule: Q04DX003 (ip), vehicle: Klucel (hydroxypropylcellulose) (HPC)
[8] = dose: 200.0 mg/kg/injection, schedule: Q04DX003 (ip), vehicle: Klucel (hydroxypropylcellulose) (HPC)
[9] = dose: 400.0 mg/kg/injection, schedule: Q04DX003 (ip), vehicle: Klucel (hydroxypropylcellulose) (HPC)
[10] = dose: 100.0 mg/kg/injection, schedule: Q01DX001 (ip), vehicle: saline sonified
[11] = dose: 100.0 mg/kg/injection, schedule: Q04DX003 (ip), vehicle: saline
[12] = dose: 200.0 mg/kg/injection, schedule: Q04DX003 (ip), vehicle: saline
[13] = dose: 400.0 mg/kg/injection, schedule: Q04DX003 (ip), vehicle: saline
[14] = dose: 50.0 mg/kg/injection, schedule: Q01DX009 (ip), vehicle: saline with Tween-80
[15] = dose: 25.0 mg/kg/injection, schedule: Q04DX003 (ip), vehicle: saline with Tween-80
[16] = dose: 50.0 mg/kg/injection, schedule: Q04DX003 (ip), vehicle: saline with Tween-80

Compound: CCCCCCCCOP(=O)(N1CC1)N1CC1
- T/C (dose: 12.5 mg/kg/injection, schedule: Q04DX003 (ip), vehicle: saline): 170 % of control
- T/C (dose: 14.0 mg/kg/injection, schedule: Q04DX003 (ip), vehicle: saline): 150 % of control
- T/C (dose: 21.0 mg/kg/injection, schedule: Q04DX003 (ip), vehicle: saline): 154 % of control
- T/C (dose: 25.0 mg/kg/injection, schedule: Q01DX009 (ip), vehicle: saline): 183 % of control
- T/C (dose: 25.0 mg/kg/injection, schedule: Q04DX003 (ip), vehicle: saline): 160 % of control
- T/C (dose: 33.0 mg/kg/injection, schedule: Q01DX009 (ip), vehicle: saline): 211 % of control
- T/C (dose: 33.0 mg/kg/injection, schedule: Q04DX003 (ip), vehicle: saline): 180 % of control and 222 % of control
- T/C (dose: 50.0 mg/kg/injection, schedule: Q01DX009 (ip), vehicle: saline): 230 % of control and 250 % of control
- T/C (dose: 50.0 mg/kg/injection, schedule: Q04DX003 (ip), vehicle: saline): 242 % of control and 285 % of control
- T/C (dose: 75.0 mg/kg/injection, schedule: Q01DX009 (ip), vehicle: saline): 111 % of control
- T/C (dose: 75.0 mg/kg/injection, schedule: Q04DX003 (ip), vehicle: saline): 285 % of control

Compound: CC1(C)c2ccccc2C(C)(O)c2ccccc21
- T/C [1]: 100 % of control
- T/C [2]: 100 % of control
- T/C [3]: 100 % of control
- T/C [4]: 96 % of control
- T/C [5]: 112 % of control
- T/C [6]: 96 % of control

Compound: COC(=O)C1CCCC23CC(CC12)C(C)(C)C3Br (configuration not stated)
- T/C [7]: 95 % of control
- T/C [8]: 100 % of control
- T/C [9]: 90 % of control

Compound: COC(=O)C1CC(O)CN1C(=O)c1c2nc3c(C(=O)N4CC(O)CC4C(=O)OC)ccc(C)c3oc-2c(C)c(=O)c1N (configuration not stated)
- T/C [2]: 96 % of control
- T/C [4]: 100 % of control
- T/C [6]: 114 % of control

Compound: COc1ccc(NCNc2ccc(OC)cc2)cc1
- T/C (dose: 25.0 mg/kg/injection, schedule: Q04DX003 (ip), vehicle: Klucel (hydroxypropylcellulose) (HPC)): 110 % of control
- T/C (dose: 50.0 mg/kg/injection, schedule: Q04DX003 (ip), vehicle: Klucel (hydroxypropylcellulose) (HPC)): 105 % of control
- T/C [7]: 110 % of control

Compound: C=C1CCC2(C(C)C)CC12 (configuration not stated)
- T/C [10]: 109 % of control
- T/C (dose: 200.0 mg/kg/injection, schedule: Q01DX001 (ip), vehicle: saline sonified): 104 % of control
- T/C (dose: 400.0 mg/kg/injection, schedule: Q01DX001 (ip), vehicle: saline sonified): 104 % of control

Compound: CCN(CC)CCC1(C(N)=O)Cc2ccccc2N(CC)c2ccccc21 (configuration not stated)
- T/C [1]: 100 % of control
- T/C [3]: 100 % of control

Compound: C=C(C)c1ccc(C)c(C)c1
- T/C [1]: 106 % of control
- T/C [5]: 122 % of control

Compound: O=C1C=C(C2CCCCC2)C(=O)C2CCCCC12 (configuration not stated)
- T/C [11]: 110 % of control
- T/C [12]: 105 % of control
- T/C [13]: 120 % of control

Compound: O/N=c1/cc(-c2cccs2)ss1
- T/C [14]: 109 % of control
- T/C [1]: 104 % of control
- T/C [11]: 117 % of control
- T/C [3]: 87 % of control
- T/C [12]: 118 % of control
- T/C [5]: 97 % of control
- T/C [13]: 124 % of control

Compound: CCOC(=O)CCC(NC(=O)c1ccc2c(c1)CCCN2C=O)C(=O)OCC (configuration not stated)
- T/C (dose: 25.0 mg/kg/injection, schedule: Q01DX001 (ip), vehicle: saline sonified): 100 % of control
- T/C (dose: 50.0 mg/kg/injection, schedule: Q01DX001 (ip), vehicle: saline sonified): 100 % of control
- T/C [10]: 100 % of control

Compound: COC1C(O)=C2C(=O)OC(C)(O)/C=C/C=C\C=C/C=C/C(c3ccccc3)NC(=O)/C=C/C=C/C=C/C=C/C2(C)C1O (configuration not stated)
- T/C (dose: 0.78 mg/kg/injection, schedule: Q01DX009 (ip), vehicle: Klucel (hydroxypropylcellulose) (HPC)): 88 % of control
- T/C (dose: 1.56 mg/kg/injection, schedule: Q01DX009 (ip), vehicle: Klucel (hydroxypropylcellulose) (HPC)): 107 % of control
- T/C (dose: 3.12 mg/kg/injection, schedule: Q01DX009 (ip), vehicle: Klucel (hydroxypropylcellulose) (HPC)): 107 % of control

Compound: O=C1OC(Cc2ccccc2)(c2ccccc2)c2ccccc21 (configuration not stated)
- T/C [14]: 90 % of control
- T/C [1]: 90 % of control

Compound: COC(=O)c1cc(C(C)=O)ccc1OC(=O)c1ccccc1
- T/C [1]: 118 % of control
- T/C [2]: 100 % of control
- T/C [3]: 104 % of control
- T/C [4]: 100 % of control
- T/C [5]: 104 % of control
- T/C [6]: 100 % of control

Compound: [N-]=[N+]=C1C(=O)NC(=O)N2C3CC(O)C(COC12)O3 (configuration not stated)
- T/C (dose: 132.0 mg/kg/injection, schedule: Q01DX009 (ip), vehicle: saline with Tween-80): 154 % of control
- T/C [3]: 159 % of control and 170 % of control
- T/C (dose: 300.0 mg/kg/injection, schedule: Q01DX009 (ip), vehicle: saline with Tween-80): 170 % of control and 177 % of control

Compound: CCOC(=O)c1ccc(=O)n(C(C)C)c1
- T/C [7]: 90 % of control
- T/C [8]: 90 % of control
- T/C [9]: 100 % of control

Compound: N#Cc1ccc(C(=O)CC(O)(C(F)(F)F)C(F)(F)F)cc1
- T/C (dose: 66.0 mg/kg/injection, schedule: Q04DX003 (ip), vehicle: saline with Tween-80): 104 % of control
- T/C [2]: 95 % of control
- T/C (dose: 150.0 mg/kg/injection, schedule: Q04DX003 (ip), vehicle: saline with Tween-80): 104 % of control
- T/C [4]: 100 % of control
- T/C [6]: 95 % of control

Compound: O=S(=O)(O)CCBr
- T/C (dose: 265.0 mg/kg/injection, schedule: Q01DX001 (ip), vehicle: saline): 90 % of control
- T/C (dose: 267.0 mg/kg/injection, schedule: Q01DX001 (ip), vehicle: saline): 100 % of control
- T/C (dose: 400.0 mg/kg/injection, schedule: Q01DX001 (ip), vehicle: saline): 86 % of control and 90 % of control

Compound: CC(C)(C)OC(=O)NC(CCCNC(=O)OCc1ccccc1)C(=O)NC(CCCNC(=O)OCc1ccccc1)C(=O)OCc1ccccc1 (configuration not stated)
- T/C (dose: 50.0 mg/kg/injection, schedule: Q01DX005 (ip), vehicle: saline with Tween-80): 91 % of control
- T/C (dose: 100.0 mg/kg/injection, schedule: Q01DX005 (ip), vehicle: saline with Tween-80): 92 % of control
- T/C (dose: 200.0 mg/kg/injection, schedule: Q01DX005 (ip), vehicle: saline with Tween-80): 95 % of control

Compound: N#CC(CC(=O)OCc1ccccc1)NC(=O)OCc1ccccc1 (configuration not stated)
- T/C [2]: 95 % of control
- T/C [4]: 90 % of control
- T/C [6]: 100 % of control

Compound: O=C1CC2(C(=O)N1CN1CCN(c3ccc(F)cc3)CC1)c1ccccc1-c1ccccc12 (tested in a mixture with another compound)
- T/C [15]: 101 % of control and 107 % of control and 121 % of control
- T/C [16]: 91 % of control and 101 % of control
- T/C [2]: 97 % of control and 105 % of control

Compound: O=S1(=O)CC(Cl)C(Cl)C1 (configuration not stated)
- T/C (dose: 3.12 mg/kg/injection, schedule: Q01DX009 (ip), vehicle: saline): 90 % of control and 95 % of control
- T/C (dose: 4.5 mg/kg/injection, schedule: Q04DX003 (ip), vehicle: saline): 118 % of control
- T/C (dose: 6.25 mg/kg/injection, schedule: Q01DX009 (ip), vehicle: saline): 90 % of control
- T/C (dose: 9.0 mg/kg/injection, schedule: Q04DX003 (ip), vehicle: saline): 104 % of control
- T/C (dose: 12.5 mg/kg/injection, schedule: Q01DX009 (ip), vehicle: saline): 95 % of control
- T/C (dose: 18.0 mg/kg/injection, schedule: Q04DX003 (ip), vehicle: saline): 113 % of control
- T/C (dose: 26.0 mg/kg/injection, schedule: Q04DX003 (ip), vehicle: saline): 91 % of control

Compound: Nc1ccc(S(=O)(=O)Nc2ccc([N+](=O)[O-])cc2)cc1
- T/C (dose: 12.5 mg/kg/injection, schedule: Q01DX009 (ip), vehicle: saline with Tween-80): 87 % of control
- T/C (dose: 25.0 mg/kg/injection, schedule: Q01DX009 (ip), vehicle: saline with Tween-80): 96 % of control and 105 % of control
- T/C [15]: 102 % of control
- T/C [14]: 89 % of control
- T/C [16]: 99 % of control
- T/C [1]: 87 % of control and 93 % of control
- T/C [2]: 105 % of control
- T/C [4]: 112 % of control
- T/C [6]: 114 % of control

Compound: CCCCCCCCCCCCOCCCCCCCCCCCC
- T/C (dose: 100.0 mg/kg/injection, schedule: Q01DX009 (sc), vehicle: olive oil, sesame oil, peanut oil): 100 % of control
- T/C (dose: 100.0 mg/kg/injection, schedule: Q04DX003 (sc), vehicle: olive oil, sesame oil, peanut oil): 109 % of control
- T/C (dose: 200.0 mg/kg/injection, schedule: Q01DX009 (sc), vehicle: olive oil, sesame oil, peanut oil): 100 % of control
- T/C (dose: 200.0 mg/kg/injection, schedule: Q04DX003 (sc), vehicle: olive oil, sesame oil, peanut oil): 100 % of control
- T/C (dose: 400.0 mg/kg/injection, schedule: Q01DX009 (sc), vehicle: olive oil, sesame oil, peanut oil): 95 % of control
- T/C (dose: 400.0 mg/kg/injection, schedule: Q04DX003 (sc), vehicle: olive oil, sesame oil, peanut oil): 100 % of control
